SMILES strings stand for the structures.

As usually defined, the melting point is the temperature, or range, at which the solid turns liquid.

The compound `C=CCC(=O)S/C=C\C(=O)NCCCCCCCC` yielded a melting point of 60 to 62 °C.
The compound `Cn1c(/C=C/C2CC(O)CC(=O)O2)c(-c2ccccc2)c2ccccc2c1=O` (centres undefined) showed a melting point of 190 to 193 °C.
Consider `CC(=O)Nc1cc2c(cc1[N+](=O)[O-])OCOC2`, for which the melting point lay in the range of 158 to 159 °C.
Under `COc1cc(OC)cc(N2CCN(C(=O)Nc3cc4ccccc4nc3OC)CC2)c1` stands 200 to 201 °C.
To `CC(=O)N1c2ccccc2C[C@H]1C#N` belongs 134 to 135 °C; to `CC(C)n1nc(-c2sc(C(=O)NCc3ccncc3)nc2-c2ccc(F)cc2)ccc1=O`, 155 to 157 °C; to `COC(=O)c1cc2c3cc(C(C)=O)ccc3n(C)c2s1`, 196 to 198 °C.
As for `COC(=O)c1cc2ccc(Br)cc2s1`, the melting point was in the range of 108 to 110 °C.
Under `CC(=O)NNc1ccnc2c(NC(=O)c3c(Cl)cccc3Cl)cc(C)c(C)c12` stands more than 250 °C; under `Cc1cccc(-c2[nH]c(C(C)C)nc2-c2ccc(F)c(-c3ccc(S(N)(=O)=O)cc3)c2)n1`, 245 to 246 °C.
`COc1cn(C(C)C(=O)N(C)C)nc1-c1ccccc1` (centres undefined) yielded a melting point of 96.5 to 98 °C.
Under `CC(C)(C)OC(=O)Nc1ccc(C#Cc2ccccc2F)cc1NC(=O)CC(=O)c1cccc(C#N)c1` stands 216 to 217 °C; under `O=C1Nc2ccc(Cl)c(Cl)c2C1c1ccccc1F` (centres undefined), 244 to 247 °C; under `Cc1cc(Cl)cnc1NCCCNc1ncc(Cc2ccncc2)c(=O)[nH]1`, 90 to 92 °C.
`CCOC(=O)C(C#N)c1ncccc1[N+](=O)[O-]` (centres undefined) had a melting point of 133 to 134 °C.
Under `CC(CNc1ccc(C(=O)O)cc1)Oc1cccc2ccccc12` (centres undefined) stands 142 to 144 °C; under `CN(Cc1cccc(Cl)c1)c1ccc(C(=O)O)nc1`, 138 to 140 °C; under `C=CCOc1ccc(C(=O)C=Cc2cc(OC)c(CCCCCC)c(OC)c2)cc1`, 77.9 to 78.2 °C.
To `COC(=O)c1ccc(Cn2c(=O)c(-c3c(Cl)cccc3Cl)cc3cnc(N)nc32)cc1` belongs 235 to 237 °C; to `COC(=O)/C=C/C(=O)/C=C/c1ccc(OC)cc1`, 54 to 55 °C.
`O=C(O)C1CCc2ccc([N+](=O)[O-])cc21` (centres undefined) gave a melting point of 92 to 94 °C.
Under `O=C(c1ccccc1)c1cc2c(s1)SCCc1cc(=O)n(-c3ccc(Cl)cc3)nc1-2` stands 180 to 182 °C; under `Oc1nnc(O)c2c1CCCC2`, 298 to 300 °C.
Under `O=C(O)Cc1cscc1Nc1c(Cl)cccc1Cl` stands 179 to 180 °C; under `O=C(O)CCCCCOc1cccc2occc12`, 86 to 87 °C.
Under `C#Cc1cc(Nc2ncnc3cnc(NCc4ccc(OC)cc4)cc23)ccc1Cl` stands 201 to 203 °C; under `CCOC(=O)C[C@H](O)C[C@H](O)/C=C/c1c(-c2ccc(F)cc2)nc(N(C)S(C)(=O)=O)nc1C(C)C`, 92 to 94 °C.
`O=C(Nc1ccc(-n2nc(C(F)(F)F)cc2C(F)(F)F)cc1)C1=CCCC1` had a melting point of 174 to 175 °C.
For the compound `C=CCOc1c(Cl)cc(-c2ccc(=O)[nH]n2)cc1Cl`, the melting point was in the range of 214 to 215 °C.
To `COC(=O)[C@H]1CC[C@H](Oc2ccc(C(=O)O)cc2)CC1` belongs 162 °C.
Under `CN1CCC(=C2c3ccccc3-c3cocc3-c3ccccc32)CC1` stands 147 to 148 °C; under `CCCC1=C(C(=O)OCC)C(c2cc(F)ccc2F)c2c[nH]nc2N1` (centres undefined), 168 to 169 °C; under `FC1(F)C(Oc2cc(Cl)c(Cl)cc2Cl)=C(Oc2cc(Cl)c(Cl)cc2Cl)C(F)(F)C1(F)F`, 65 to 68 °C.
To `CCCCCCCCCCCCCCCCCC1CC(O)C(CC)C(=O)O1` (racemic) belongs 101 to 102 °C.
Regarding `OC(c1ccccc1)(C1CC1)C(c1ccccc1Cl)n1ccnc1` (centres undefined), the melting point turned out to be 146 °C.
As for `O=C(O)/C=C/c1ccc(N2CCCC2)cc1`, the melting point turned out to be 265 °C.
Consider `COc1cc(Cc2cnc(N)nc2N)cc(OC(C)C(C)=O)c1OC` (centres undefined), for which the melting point came to 168 °C.
Compound `Cc1ccc(NC(=S)Nc2ncccc2OCc2c(F)cccc2Cl)cc1` had a melting point of 138 to 140 °C.
Regarding `CSCc1cn(C)c2ccccc2c1=O`, the melting point fell in the range of 118 to 120 °C.
`C=CCOc1c(N)cc2c(C)cc(=O)oc2c1C` gave a melting point of 146 to 147 °C.
Under `Nc1cccc2c(Br)cccc12` stands 65 to 66 °C; under `Cc1nc2c(OCc3ccccc3)nccn2c1C`, 104 to 110 °C.
As to `Nc1nc(N)c2c(ccc3c2ccn3Cc2ccc(Cl)cc2Cl)n1`, the melting point lay within 249 to 250 °C.
Under `CC(C)(C)OC(=O)N1CCN(c2ccnc3sc(C(N)=O)c(N)c23)CC1` stands 198 to 203 °C; under `C=Cc1nc(-c2cn(C)c3ccccc23)no1`, 54 to 55 °C; under `CCCOc1nsc(NC(=O)NC)c1C(N)=O`, 195 to 198 °C.
To `Cc1cc(Cl)cc(C(=O)NC2(C)CS(=O)(=O)C2)c1NC(=O)c1cc(OCC(F)(F)F)nn1-c1ncccc1Cl` belongs more than 250 °C.
In turn, `CC1(C)CCC(C)(C)c2cc(C(=O)Nc3ccc(F)cc3)ccc21` yielded a melting point of 163 to 165 °C.
The compound `CC(C)(C)OC(=O)Nc1ncc(-c2ccc(C#Cc3ccccc3)cc2)n1C(=O)OC(C)(C)C` had a melting point of 131 to 132 °C.
As for `Cc1ccc(-c2n[nH]c(N)c2C#N)cc1`, the melting point was in the range of 173 to 178 °C.
Compound `CNS(=O)(=O)c1ccc(Oc2ccncc2)cc1` yielded a melting point of 125 to 127 °C.
To `Cc1nc(N2CCOCC2)c2c(n1)N(CC(O)CO)C(=O)CO2` (centres undefined) belongs 153 to 155 °C; to `O=C(Oc1ccccc1)OC1C2=C(SCCS2)C(=O)N1c1ccc(Cl)cn1` (centres undefined), 178 °C; to `N#Cc1cnc2cc3ccccc3cc2c1Nc1ccc(F)c(Cl)c1`, 257 to 259 °C.
To `COc1cc(C2=C(c3cn(CCCNC(=O)C(CO)NC(=O)OC(C)(C)C)c4ccccc34)C(=O)NC2=O)cc(OC)c1OC` (centres undefined) belongs 112 to 114 °C; to `Cc1cc(C)c2c(-c3cc(C(C)(C)C)c(O)c(C(C)(C)C)c3)n[nH]c2n1`, 257 to 258 °C; to `CC(C)(C)OC(=O)Nc1ccc(Cl)c(O)c1`, 103 to 106 °C.
`Nc1ncc2cc(-c3c(Cl)cccc3Cl)c(=O)n(CCCc3ccccc3)c2n1` came in with a melting point of 161 to 163 °C.
In the case of `CCCc1c(O)c(C(C)=O)cc2c(C)cc(C(=O)OCC)nc12`, the melting point fell in the range of 150 to 151 °C.
To `O=C1CCCN(C(=O)Cc2ccccc2)C(=O)CCc2cc(Cl)ccc21` belongs 178 to 180 °C; to `O=C(O)c1ccc(OCCNC(=O)C2Cc3ccccc3N2S(=O)(=O)c2ccc(-c3cccc(C(F)(F)F)c3)cc2)cc1F` (centres undefined), 97 to 105 °C; to `Cc1nc2cc(C(O)(c3ccc(Cl)cc3)c3cncn3C)cc3c(-c4cccc(Cl)c4)cc(=O)n1c23` (centres undefined), 170 °C.
To `N#Cc1ccnc(-c2nc(=O)c3ccccc3s2)c1` belongs 283 to 284 °C; to `CCCCOc1cccc(CCNC(=O)C=CC2CCCCC2)c1`, 67 to 71 °C; to `COc1ccccc1-c1cc(F)cc2c1O[C@@H](CN)CC2`, 100 °C.
Under `O=C(O)CCCNCCC(=O)O` stands 148 to 151 °C; under `O=C(O)C1=Cc2cc(Cl)c(Oc3ccc(C(=O)O)cc3Cl)cc2OC1C(F)(F)F` (centres undefined), more than 300 °C; under `COC(=O)c1cccc(C(=O)OC)c1S(=O)(=O)NC(=O)Nc1nc(OC)cc(OC)n1`, 164 to 167 °C.
`CCCCOc1cc(/C=C(\OCC)C(=O)O)ccc1CCCc1ccc(OS(=O)(=O)CCCC)c(OC)c1` showed a melting point of 75 °C.
`CC(=O)c1cc(C)ccc1OCCCN1CCC(c2noc3cc(F)ccc23)CC1` gave a melting point of 92 to 93 °C.
For the compound `CNN(NC)C(=O)Nc1cccc2c1C(=O)c1c-2n[nH]c1C(C)C`, the melting point is 231 to 233 °C.
Under `CC1Cc2ccccc2C(O)(C2CCN(C)CC2)c2ccsc21` (centres undefined) stands 177 to 178 °C; under `O=C(O)c1cccc(C(=O)O)c1Nc1cccc(I)c1`, 214 to 216 °C; under `O=C1c2ccccc2COc2ccc(CCC(=O)N(O)C3CCCCC3)cc21`, 146 to 147 °C.
With `Cc1ccc(N2C(=O)C(O)=C(C(=O)c3ccc(C(C)C)cc3)C2c2ccc(C(F)(F)F)cc2)nn1` (centres undefined), the melting point worked out at 252 °C.
In turn, `CCOP(=O)(/C=C/c1cn(-c2ccccc2)nc1OCc1ccc(OCc2nc(-c3ccccc3)oc2C)c(OC)c1)OCC` showed a melting point of 92 to 93 °C.
Regarding `Cc1cc2occc2cn1`, the melting point lay in the range of 55 to 56 °C.
To `NC(=O)c1ccc2c([N+](=O)[O-])cc3c(c2c1)C(CCl)CN3` (centres undefined) belongs more than 300 °C; to `CCOC(=O)C1=C(C)NC(C)=C(C(=O)OCC)C1c1ccccc1/C=C/C(=O)OC1CCCC1`, 182 to 184 °C; to `CN1CC[C@@H](c2c(O)cc(O)c3c(=O)cc(-c4ccc(C#N)cc4Cl)oc23)[C@@H]1CO`, 237 to 239 °C.
Under `CCOC(=O)N1CCC2(CC1)Oc1ccccc1C2n1cccc1` (centres undefined) stands 132 to 133 °C; under `CC(C)c1cc(C(C)C)c(CC(=O)NS(=O)(=O)Oc2c(C(C)C)cc(N(CCO)CCO)cc2C(C)C)c(C(C)C)c1`, 143 to 146 °C; under `Cc1cc(C(O)CN2CCC(O)(c3ccc4c(c3)COCC4)CC2)ccc1O` (centres undefined), 178 °C.
To `Cc1c(O)c(Cl)cc(Cl)c1C(=O)O` belongs 135 °C; to `COc1ccc(C(=C(CCBr)c2ccccc2)c2ccccc2)cc1`, 116 to 118 °C; to `COC[C@@H]1[C@@H](c2ccc(Cl)c(Cl)c2)C[C@@H]2CC[C@H]1N2C`, 73 to 76 °C.
`O=CNc1nc(CSc2ccc([N+](=O)[O-])cc2)cs1` displayed a melting point of 158 to 160 °C.
As for `CCC(=O)C1=CCC(c2c(C)c(C)c3c(c2Cl)CC(C)(C)C3)CC1=O` (centres undefined), the melting point is 74 to 75 °C.
Under `CC(NC(=O)c1ccc(-c2ccccc2)cc1)C(=O)O` (centres undefined) stands 160 °C.

These data come from a melting point compilation (Tetko et al.; mined from patent text by program, amines drawn as free bases though some values may be those of a salt).
